# Assays:
# [1] = system: murine CT26 colon carcinoma cells; assay: RIG-I dependent CXCL10 secretion by CT26 cells (ELISA); assay type: cell-based; conditions: supernatant 24 h after stimulation
# In short: (§1)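 CT26 murine colon carcinoma cells, parental or CRISPR RIG-I−/−, seeded and grown 24 hr at 37° C, then treated with compounds at 10 μM, or at 5 or 20 μM for some. Secreted CXCL10 measured by ELISA in supernatants 24 h after treatment and reported in pg/mL bands.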
# [2] = system: IRF3 signaling pathway in THP1-Lucia™ ISG cells; assay: THP1-Lucia ISG reporter assay: induction of IRF3-dependent gene expression (secreted luciferase); assay type: cell-based, human; conditions: PMA-differentiated cells, 18 h after stimulation
# In short: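 PMA-differentiated THP-1 reporter cells (ISRE/ISG54 promoter driving secreted luciferase), plus CRISPR IRF3−/− line, treated with compounds at 5–20 μM (mostly 10 μM). Luciferase measured 18 h later; values are fold increase over untreated background, binned from <2.4 to ≥40.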
# [3] = system: IRF3-deficient THP1-Lucia™ ISG IRF3−/− cells; assay: THP1-Lucia ISG IRF3−/− reporter assay (IRF3-deficient control cells); assay type: cell-based, human; conditions: compound 5 to 20 μM, 18 h
# Description: The promoter was comprised of five IFN-stimulated response elements (ISRE) fused to an ISG54 minimal promoter which is unresponsive to NF-kB or AP-1 pathways. […] The IRF3-deficient THP1-Lucia™ ISG IRF3−/−reporter cell line was generated by CRISPR technology from the parent THP1-Lucia™ ISG reporter cell line.
# THP1-Lucia™ ISG cells and IRF3-deficient THP1-Lucia™ ISG IRF3−/−cells were differentiated with PMA (100 ng/ml) and stimulated with compounds at the indicated concentrations (5 to 20 μM), positive control, or not treated (background). Luciferase secretion was quantified using the QUANTI-Luc luciferase assay system (InvivoGen) 18 h after stimulation. Data are shown as fold increase luciferase activity over background in Table 7 and represent the IRF3-dependent ISG54 promoter activity by the THP1-Lucia™ ISG cells in response to compounds. […] The fold increase of compounds (10 μM, *20 μM, **5 μM) induced IRF3 dependent luciferase activity is indicated as follows: “≠” indicates less than 2.4 fold increase; “+” indicates a 2.4-4.9 fold increase; “++” indicates a 5-9.9 fold increase; “+++” indicates a 10-19 fold increase; “++++” indicates a 20-39 fold increase; “+++++” indicates greater than or equal to 40 fold increase.
# [4] = system: RIG-I deficient CT26 RIG-I−/− cells; assay: CXCL10 secretion by RIG-I deficient CT26 RIG-I−/− cells (ELISA); assay type: cell-based, murine; conditions: compound 5 to 20 μM, 24 h; further: key: −: about 0 pg/mL of CXCL10, or below the level of quantitation
# In short: as §1
Molecule,"CXCL10 secretion, CT26 ([1]; 10 μM compound)","fold increase of IRF3-dependent luciferase activity over background, THP1 ISG ([2]; 10 μM compound)","fold increase of luciferase activity, THP1 ISG IRF3−/− [3]","CXCL10 secretion, CT26 RIG-I−/− [4]","CXCL10 secretion, CT26 ([1]; 20 μM compound (*))","fold increase of IRF3-dependent luciferase activity over background, THP1 ISG ([2]; 20 μM compound (*))","CXCL10 secretion, CT26 ([1]; 5 μM compound (**))","fold increase of IRF3-dependent luciferase activity over background, THP1 ISG ([2]; 5 μM compound (**))"
"O=C(Nc1cc2ccc3scnc3c2o1)c1cc2ccccc2cc1OCCCCN1CCOCC1 [Example 56, 3-[4-(morpholin-4-yl)butoxy]-N-{12-oxa-5-thia-3-azatricyclo [7.3.0.0^2,^6]dodeca-1,3,6,8,10-pentaen-11-yl}naphthalene-2-carboxamide]",+++ (400-799 pg/mL),+ (a 2.4-4.9 fold increase),− (less than 0.5 fold above baseline was considered below the level of quantitation),−,,,,
"Cn1c(C(=O)Nc2cc3ccc4scnc4c3s2)cc2ccccc21 [Example 60, N-{5,12-dithia-3-azatricyclo[7.3.0.0^2,^6]dodeca-1,3,6,8,10-pentaen-11-yl}-1-methyl-1H-indole-2-carboxamide]",,,− (less than 0.5 fold above baseline was considered below the level of quantitation),−,+* (100-199 pg/mL),+* (a 2.4-4.9 fold increase),,
"O=C(Nc1cc2ccc3scnc3c2s1)c1cc2ccccc2cc1OCCCCN1CCOCC1 [Example 54, N-{5,12-dithia-3-azatricyclo[7.3.0.0^2,^6]dodeca-1,3,6,8,10-pentaen-11-yl}-3-[4-(morpholin-4-yl)butoxy]naphthalene-2-carboxamide]",++++ (800 to 1599 pg/mL),+++ (a 10-19 fold increase),− (less than 0.5 fold above baseline was considered below the level of quantitation),−,,,,
"O=C(Nc1cc2ccc3scnc3c2s1)c1cc2ccccc2cc1OCCN1CCOCC1 [Example 55, N-{5,12-dithia-3-azatricyclo[7.3.0.0^2,^6]dodeca-1,3,6,8,10-pentaen-11-yl}-3-[2-(morpholin-4-yl)ethoxy]naphthalene-2-carboxamide]",≠ (less than 100 pg/mL),+++ (a 10-19 fold increase),− (less than 0.5 fold above baseline was considered below the level of quantitation),−,,,,
"O=C(Nc1nc2ccc3ocnc3c2s1)c1cc2ccccc2cc1OCCN1CCOCC1 [Example 52, 3-[2-(morpholin-4-yl)ethoxy]-N-{10-oxa-3-thia-5,12-diazatricyclo[7.3.0.0^2,^6]dodeca-1,4,6,8,11-pentaen-4-yl}naphthalene-2-carboxamide]",+ (100-199 pg/mL),+ (a 2.4-4.9 fold increase),− (less than 0.5 fold above baseline was considered below the level of quantitation),−,,,,
"N-(3-bromophenyl)-11-methyl-3,10-dithia-5,12-diazatricyclo[7.3.0.0^2,^6]dodeca-1,4,6,8,11-pentaene-4-carboxamide [Example 10]",+++ (400-799 pg/mL),+ (a 2.4-4.9 fold increase),− (less than 0.5 fold above baseline was considered below the level of quantitation),−,,,,
"O=C(Nc1nc2ccc3sccc3c2s1)c1cc2ccccc2cc1OCCCCN1CCOCC1 [Example 49, N-{3,10-dithia-5-azatricyclo[7.3.0.0^2,^6]dodeca-1,4,6,8,11-pentaen-4-yl}-3-[4-(morpholin-4-yl)butoxy]naphthalene-2-carboxamide]",++++ (800 to 1599 pg/mL),+++ (a 10-19 fold increase),− (less than 0.5 fold above baseline was considered below the level of quantitation),−,,,,
"O=C(Nc1cc2ccc3scnc3c2o1)c1cc2ccccc2cc1OCCN1CCOCC1 [Example 57, 3-[2-(morpholin-4-yl)ethoxy]-N-{12-oxa-5-thia-3-azatricyclo [7.3.0.0^2,^6]dodeca-1,3,6,8,10-pentaen-11-yl}naphthalene-2-carboxamide]",,+++ (a 10-19 fold increase),− (less than 0.5 fold above baseline was considered below the level of quantitation),−,++* (200-399 pg/mL),,,
"O=C(Nc1nc2ccc3[nH]cnc3c2s1)c1cc2ccccc2cc1OCCN1CCOCC1 [Example 72, 3-[2-(morpholin-4-yl)ethoxy]-N-{3-thia-5,10,12-triazatricyclo[7.3.0.0^2,^6]dodeca-1,4,6,8,11-pentaen-4-yl}naphthalene-2-carboxamide]",+++ (400-799 pg/mL),++ (a 5-9.9 fold increase),− (less than 0.5 fold above baseline was considered below the level of quantitation),−,,,,
"N-{5,12-dithia-3-azatricyclo[7.3.0.0^2,^6]dodeca-1,3,6,8,10-pentaen-11-yl}-3-[2-(morpholin-4-yl)ethoxy]-[1,1′-biphenyl]-4-carboxamide [Example 61]",,++++ (a 20-39 fold increase),− (less than 0.5 fold above baseline was considered below the level of quantitation),−,,,++** (200-399 pg/mL),
"O=C(Nc1nc2ccc3occc3c2s1)c1cc2ccccc2cc1OCCN1CCOCC1 [Example 51, 3-[2-(morpholin-4-yl)ethoxy]-N-{10-oxa-3-thia-5-azatricyclo[7.3.0.0^2,^6]dodeca-1,4,6,8,11-pentaen-4-yl}naphthalene-2-carboxamide]",+++ (400-799 pg/mL),+++ (a 10-19 fold increase),− (less than 0.5 fold above baseline was considered below the level of quantitation),−,,,,
"O=C(Nc1nc2ccc3scnc3c2o1)c1cc2ccccc2cc1OCCN1CCOCC1 [Example 58, 3-[2-(morpholin-4-yl)ethoxy]-N-{3-oxa-10-thia-5,12-diazatricyclo [7.3.0.0^2,^6]dodeca-1,4,6,8,11-pentaen-4-yl}naphthalene-2-carboxamide]",+ (100-199 pg/mL),+ (a 2.4-4.9 fold increase),− (less than 0.5 fold above baseline was considered below the level of quantitation),−,,,,
"O=C(Nc1nc2ccc3occc3c2s1)c1cc2ccccc2cc1OCCCCN1CCOCC1 [Example 50, 3-[4-(morpholin-4-yl)butoxy]-N-{10-oxa-3-thia-5-azatricyclo[7.3.0.0^2,^6]dodeca-1,4,6,8,11-pentaen-4-yl}naphthalene-2-carboxamide]",++ (200-399 pg/mL),+++ (a 10-19 fold increase),− (less than 0.5 fold above baseline was considered below the level of quantitation),−,,,,
"N-[11-(methylsulfanyl)-3,10-dithia-5,12-diazatricyclo[7.3.0.0^2,^6]dodeca-1,4,6,8,11-pentaen-4-yl]-3-[4-(morpholin-4-yl)butoxy]naphthalene-2-carboxamide [Example 37]",++++ (800 to 1599 pg/mL),+++ (a 10-19 fold increase),− (less than 0.5 fold above baseline was considered below the level of quantitation),−,,,,
"[N-(7-hydroxybenzo[1,2-d:3,4-d′]bis(thiazole)-2-yl)-3-(4-morpholinobutoxy)-2-naphthamide hydrochloride] [Example 44]",+++ (400-799 pg/mL),,− (less than 0.5 fold above baseline was considered below the level of quantitation),−,,,,++** (a 5-9.9 fold increase)

# Reference: patent publication US20200055871A1, “ACTIVATORS OF THE RETINOIC ACID INDUCIBLE GENE "RIG-I" PATHWAY AND METHODS OF USE THEREOF” (Kineta Immuno-Oncology LLC, priority 2018, published 2020)
